SMILES strings stand for the structures. Bounds are passed on as bounds.

The target in experiment [1] is T1, Mitogen-activated protein kinase 1 (Homo sapiens, UniProt P28482). The experiment in a line: Inhibition of MEK U911-activated ERK2 (unknown origin) using ERKtide as substrate preincubated for 20 mins followed by substrate addition in presence of ATP at Km concentration after 20 mins by rapidfire mass spectrometry analysis.
Experiment [2] deals with T1, Mitogen-activated protein kinase 1. The experiment in a line: Inhibition of MEK U911-activated ERK2 (unknown origin) using ERKtide as substrate preincubated for 20 mins followed by substrate addition in presence of 1 mM ATP after 10 mins by rapidfire mass spectrometry analysis.
The target of experiment [3] is T2, Mitogen-activated protein kinase; ERK1/ERK2 (Homo sapiens, UniProt P27361+P28482). Put plainly: Inhibition of ERK1/2 in human A375 cells assessed as inhibition of ERK phosphorylation after 2 hrs. Type of experiment: cell-based.
The target of experiment [4] is T2, Mitogen-activated protein kinase; ERK1/ERK2. The experiment in a line: Inhibition of ERK1/2 in human A375 cells assessed as inhibition of RSK phosphorylation after 2 hrs. Type of experiment: cell-based.
The target in experiment [5] is Voltage-gated inwardly rectifying potassium channel KCNH2 (Homo sapiens, UniProt Q12809).
Chain of Voltage-gated inwardly rectifying potassium channel KCNH2 (Q12809 whole entry): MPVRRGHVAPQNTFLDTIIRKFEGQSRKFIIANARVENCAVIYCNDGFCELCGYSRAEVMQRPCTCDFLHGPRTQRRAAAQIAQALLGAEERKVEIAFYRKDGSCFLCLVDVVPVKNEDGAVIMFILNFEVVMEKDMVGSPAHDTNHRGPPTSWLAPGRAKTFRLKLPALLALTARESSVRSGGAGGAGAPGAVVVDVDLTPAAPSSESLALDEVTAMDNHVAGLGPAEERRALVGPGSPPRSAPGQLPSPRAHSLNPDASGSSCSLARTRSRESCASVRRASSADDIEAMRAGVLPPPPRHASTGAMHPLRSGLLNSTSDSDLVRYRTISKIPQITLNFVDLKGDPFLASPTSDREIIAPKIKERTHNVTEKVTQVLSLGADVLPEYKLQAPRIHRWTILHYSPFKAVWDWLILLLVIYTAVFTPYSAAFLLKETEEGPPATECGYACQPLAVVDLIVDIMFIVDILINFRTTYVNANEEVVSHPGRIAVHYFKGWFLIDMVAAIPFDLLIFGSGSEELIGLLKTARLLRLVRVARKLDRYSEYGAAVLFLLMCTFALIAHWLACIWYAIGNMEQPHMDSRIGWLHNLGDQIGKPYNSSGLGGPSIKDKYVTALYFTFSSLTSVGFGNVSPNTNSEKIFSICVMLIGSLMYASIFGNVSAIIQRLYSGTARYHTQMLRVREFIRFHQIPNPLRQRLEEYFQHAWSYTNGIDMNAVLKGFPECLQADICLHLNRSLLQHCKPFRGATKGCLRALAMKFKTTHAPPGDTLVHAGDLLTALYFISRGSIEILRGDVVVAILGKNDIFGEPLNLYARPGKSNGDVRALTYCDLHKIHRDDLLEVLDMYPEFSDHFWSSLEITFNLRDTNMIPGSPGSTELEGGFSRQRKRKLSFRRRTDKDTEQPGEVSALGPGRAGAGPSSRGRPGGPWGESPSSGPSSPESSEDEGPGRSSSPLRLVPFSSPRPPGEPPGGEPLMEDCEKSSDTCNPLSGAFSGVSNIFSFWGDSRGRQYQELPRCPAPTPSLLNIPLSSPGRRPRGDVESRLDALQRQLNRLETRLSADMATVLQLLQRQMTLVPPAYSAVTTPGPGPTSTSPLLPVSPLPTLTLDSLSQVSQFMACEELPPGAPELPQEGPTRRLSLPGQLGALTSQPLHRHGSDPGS
Experiment [6] addresses T1, Mitogen-activated protein kinase 1.
Experiment [7] shares this target. The source holds these as a separate data set.
For experiment [8] the target is unchanged. This is another data set of the same source.
Experiment [9] shares this target. The source holds these as a separate data set.
Experiment [10] shares this target. This is another data set of the same source.
For experiment [11] the target is unchanged. This is another data set of the same source.

T1 sequence (P28482 whole entry): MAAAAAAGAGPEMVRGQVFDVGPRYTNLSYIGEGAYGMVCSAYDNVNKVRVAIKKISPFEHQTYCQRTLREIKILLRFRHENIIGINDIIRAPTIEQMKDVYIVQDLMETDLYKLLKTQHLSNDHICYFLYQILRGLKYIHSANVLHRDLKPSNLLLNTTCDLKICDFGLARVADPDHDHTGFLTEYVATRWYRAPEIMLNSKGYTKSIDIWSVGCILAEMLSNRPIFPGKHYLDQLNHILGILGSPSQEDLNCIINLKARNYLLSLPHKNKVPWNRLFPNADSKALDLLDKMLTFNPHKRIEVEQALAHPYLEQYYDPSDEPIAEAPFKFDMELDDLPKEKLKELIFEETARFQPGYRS

Regarding `Cc1cnc(Nc2ccnn2C)nc1-c1cn2c(n1)C(=O)N(Cc1ccc(F)c(F)c1)[C@@H](C)C2`, the IC50 in experiment [1] was less than 0.3 nM; in experiment [2], 0.32 nM; in experiment [3], 3.4 nM; in experiment [4], 38 nM; in experiment [5] it was 23000 nM.
As for `Cc1cnc(Nc2ccnn2C)nc1-c1cn2c(n1)C(=O)N(Cc1cccc(Cl)c1)CC2`, the concentration for half-maximal inhibition (IC50) in experiment [1] is less than 0.3 nM; in experiment [2] it was 0.34 nM; in experiment [3], 4.7 nM; in experiment [4], 12 nM.
Regarding `Cc1cnc(Nc2ccnn2C)nc1-c1cn2c(n1)C(=O)N(Cc1ccc(F)c(F)c1)CC2`, the half-inhibitory concentration (IC50) in experiment [1] was determined as 0.83 nM; in experiment [2], 2.6 nM; in [3], 9.1 nM; in experiment [4], 31 nM; in [5] it was 23000 nM.
For the molecule `Cc1cnc(Nc2ccnn2C)nc1-c1cc2n(c1)CCN(Cc1cccc(Cl)c1)C2=O`, the half-inhibitory concentration (IC50) is less than 0.3 nM in [1], 0.13 nM in experiment [2], greater than 14000 nM in experiment [3] and 10 nM in experiment [4].
As for `COC[C@H]1Cn2cc(-c3nc(Nc4ccnn4C)ncc3C)cc2C(=O)N1Cc1cccc(C)n1`, the 50% inhibitory concentration (IC50) is less than 0.3 nM in [1], 0.6 nM in experiment [2], 30 nM in [3] and 60 nM in experiment [4].
With `Cc1cnc(Nc2ccnn2C)nc1-c1cc2n(c1)CCN(Cc1ccc(F)c(F)c1)C2=O`, the half-inhibitory concentration (IC50) was less than 0.3 nM in [1], 0.35 nM in [2] and 20 nM in experiment [4].
With `CC(C)Nc1cc(-c2c[nH]c(C(=O)N[C@H](CO)c3cccc(Cl)c3)c2)c(Cl)cn1`, the values for the Ka in [6] and in experiment [7] were 7.5 ×10⁻⁵ /M/s and 1.3 ×10⁻⁶ /M/s, respectively. Moreover, the results for the Kdiss in experiment [8] and in experiment [9] were 7.4 ×10⁻³ /s and 4.1 ×10⁻⁴ /s, respectively. Also, the T1/2 in experiment [10] was determined as 2 min; in experiment [11], 35 min.
As for `Cc1cccc(CN2C(=O)c3cc(-c4nc(Nc5ccnn5C)ncc4C)cn3C[C@H]2C)n1`, the figures for the Ka in experiment [6] and in [7] were 1.3 ×10⁻⁶ /M/s and 1.9 ×10⁻⁶ /M/s, respectively. Besides, the Kdiss in experiment [8] was found to be 1 ×10⁻³ /s; in experiment [9] it was 3.2 ×10⁻⁴ /s. Besides, the T1/2 turned out to be 11.9 min in experiment [10] and 37 min in experiment [11].
The molecule `Cn1nccc1Nc1nccc(-c2ccn([C@H](CO)c3ccc(Cl)c(F)c3)c(=O)c2)n1` gave a Ka in [7] of 9.8 ×10⁻⁶ /M/s. This molecule also had a Kdiss in experiment [8] of 9.9 ×10⁻³ /s. In addition, the T1/2 in [10] is 1.2 min; in experiment [11], 0.8 min.
For the molecule `O=C(Nc1ccc2[nH]nc(-c3ccncc3)c2c1)[C@@H]1CCN(CC(=O)N2CCN(c3ccc(-c4ncccn4)cc3)CC2)C1`, the Ka turned out to be 9.4 ×10⁻⁵ /M/s in experiment [6] and 1.3 ×10⁻⁶ /M/s in experiment [7]. In addition, the Kdiss in experiment [8] came to 4.4 ×10⁻⁵ /s. For the same molecule, the T1/2 in experiment [10] stood at 291 min; in experiment [11], 127 min.
